Measurements from PubChem BioAssay AID256 (DTP/NCI, 2004).
Values joined by “and” are separate entries in the source; they are usually repeats but may differ in a detail not shown here. Identical values can stand only once. Inconclusive results and toxic doses are left out.

System: CD2F1 mice, L1210 leukemia ip, survival T/C
Assay: NCI In Vivo Anticancer Drug Screen. Data for tumor model L1210 Leukemia (intraperitoneal) in CD2F1 (CDF1) mice
Settings: higher = longer survival
Outline: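 In this screen, transplantable tumors were grown in mice given either the compound or its vehicle. Results were expressed as the treated measurement relative to the control measurement.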

[1] = endpoint: mean survival time, dose: 50.0 mg/kg/injection, schedule: Q01DX009 (ip), vehicle: saline with Tween-80
[2] = endpoint: mean survival time, dose: 100.0 mg/kg/injection, schedule: Q01DX009 (ip), vehicle: saline with Tween-80
[3] = endpoint: mean survival time, dose: 200.0 mg/kg/injection, schedule: Q01DX009 (ip), vehicle: saline with Tween-80
[4] = endpoint: mean survival time, dose: 100.0 mg/kg/injection, schedule: Q01DX009 (ip), vehicle: saline
[5] = endpoint: mean survival time, dose: 200.0 mg/kg/injection, schedule: Q01DX009 (ip), vehicle: saline
[6] = endpoint: mean survival time, dose: 100.0 mg/kg/injection, schedule: Q04DX003 (ip), vehicle: saline with Tween-80
[7] = endpoint: mean survival time, dose: 200.0 mg/kg/injection, schedule: Q04DX003 (ip), vehicle: saline with Tween-80
[8] = endpoint: mean survival time, dose: 400.0 mg/kg/injection, schedule: Q04DX003 (ip), vehicle: saline with Tween-80
[9] = endpoint: mean survival time, dose: 100.0 mg/kg/injection, schedule: Q01DX001 (ip), vehicle: saline with Tween-80
[10] = endpoint: mean survival time, dose: 200.0 mg/kg/injection, schedule: Q01DX001 (ip), vehicle: saline with Tween-80
[11] = endpoint: mean survival time, dose: 400.0 mg/kg/injection, schedule: Q01DX001 (ip), vehicle: saline with Tween-80
[12] = endpoint: mean survival time, dose: 400.0 mg/kg/injection, schedule: Q01DX009 (ip), vehicle: saline with Tween-80
[13] = endpoint: mean survival time, dose: 25.0 mg/kg/injection, schedule: Q01DX009 (ip), vehicle: saline with Tween-80
[14] = endpoint: mean survival time, dose: 100.0 mg/kg/injection, schedule: Q04DX002 (ip), vehicle: saline with Tween-80

COc1ccc(-c2nc3ccc(C)cc3c(=O)o2)cc1
T/C [1]: 89 % of control
T/C [2]: 93 % of control
T/C [3]: 89 % of control

Nc1cc(N)c2[nH]cnc2n1
T/C (endpoint: mean survival time, dose: 100.0 mg/kg/injection, schedule: Q01DX001 (ip), vehicle: other): 104 % of control
T/C (endpoint: mean survival time, dose: 200.0 mg/kg/injection, schedule: Q01DX001 (ip), vehicle: other): 97 % of control
T/C (endpoint: mean survival time, dose: 400.0 mg/kg/injection, schedule: Q01DX001 (ip), vehicle: other): 98 % of control

Nc1nc(-c2ccccc2)c(CCCNc2ccc(C(=O)NC(CCC(=O)O)C(=O)O)cc2)c(=O)[nH]1 (stereo unspecified)
T/C [4]: 94 % of control
T/C [5]: 96 % of control

O=C1CNC(c2ccccc2)C(c2ccccc2)N1 (stereo unspecified)
T/C [6]: 100 % of control
T/C [7]: 102 % of control
T/C [8]: 101 % of control

CCOC(=O)Nc1cc(NCCCCc2ccccc2)c(N)c(N)n1
T/C [9]: 102 % of control
T/C [10]: 109 % of control

c1ccc(C2Cc3ccccc3C2=NC2CCCCC2)cc1 (stereo unspecified)
T/C [9]: 97 % of control
T/C [10]: 93 % of control
T/C [11]: 90 % of control

CCCCCCCCCCCCCCCCCCCCc1ccccc1
T/C (endpoint: mean survival time, dose: 100.0 mg/kg/injection, schedule: Q04DX002 (ip), vehicle: Klucel (hydroxypropylcellulose) (HPC)): 97 % of control
T/C (endpoint: mean survival time, dose: 200.0 mg/kg/injection, schedule: Q04DX002 (ip), vehicle: Klucel (hydroxypropylcellulose) (HPC)): 94 % of control
T/C (endpoint: mean survival time, dose: 400.0 mg/kg/injection, schedule: Q04DX002 (ip), vehicle: Klucel (hydroxypropylcellulose) (HPC)): 90 % of control

COC(=O)C(N)Cc1ccc(O)c(O)c1 (stereo unspecified)
T/C (endpoint: mean survival time, dose: 12.5 mg/kg/injection, schedule: Q01DX009 (ip), vehicle: saline): 101 % of control and 107 % of control
T/C (endpoint: mean survival time, dose: 25.0 mg/kg/injection, schedule: Q01DX009 (ip), vehicle: saline): 101 % of control and 107 % of control
T/C (endpoint: mean survival time, dose: 50.0 mg/kg/injection, schedule: Q01DX009 (ip), vehicle: saline): 95 % of control and 103 % of control
T/C [4]: 94 % of control and 103 % of control and 107 % of control
T/C [5]: 113 % of control and 101 % of control and 110 % of control
T/C (endpoint: mean survival time, dose: 400.0 mg/kg/injection, schedule: Q01DX009 (ip), vehicle: saline): 117 % of control and 110 % of control (2×)
T/C (endpoint: mean survival time, dose: 800.0 mg/kg/injection, schedule: Q01DX009 (ip), vehicle: saline): 116 % of control and 123 % of control

C/C=C1/CN2[C@H]3C[C@@]45c6ccccc6N[C@@H]4[C@@H]2C[C@H]1[C@@]3(C(=O)OC)[C@H]5O
T/C [2]: 91 % of control
T/C [6]: 95 % of control
T/C [3]: 95 % of control
T/C [7]: 100 % of control
T/C [12]: 91 % of control
T/C [8]: 103 % of control

Nc1nc2c(nc(Br)n2C2OC(CO)C(O)C2O)c(=O)[nH]1 (stereo unspecified)
T/C [6]: 98 % of control
T/C [7]: 102 % of control
T/C [8]: 94 % of control

CNNCc1ccc(/C=N/NC(N)=S)cc1
T/C (endpoint: mean survival time, dose: 6.25 mg/kg/injection, schedule: Q01DX009 (ip), vehicle: water): 96 % of control
T/C (endpoint: mean survival time, dose: 12.5 mg/kg/injection, schedule: Q01DX009 (ip), vehicle: water): 98 % of control
T/C (endpoint: mean survival time, dose: 25.0 mg/kg/injection, schedule: Q01DX009 (ip), vehicle: water): 100 % of control
T/C (endpoint: mean survival time, dose: 50.0 mg/kg/injection, schedule: Q01DX009 (ip), vehicle: water): 86 % of control and 96 % of control
T/C (endpoint: mean survival time, dose: 100.0 mg/kg/injection, schedule: Q01DX009 (ip), vehicle: water): 86 % of control and 96 % of control

CC(=O)C(=O)O.CC(=O)C(=O)O.[NH-]C1CCCCC1[NH-].[Pt+2] (stereo unspecified)
T/C (endpoint: mean survival time, dose: 1.56 mg/kg/injection, schedule: Q04DX003 (ip), vehicle: other): 109 % of control
T/C (endpoint: mean survival time, dose: 12.5 mg/kg/injection, schedule: Q04DX003 (ip), vehicle: other): 120 % of control
T/C (endpoint: median survival time, dose: 25.0 mg/kg/injection, schedule: Q01DX009 (ip), vehicle: dextrose): 87 % of control

O=C(O)CCc1cccnc1
T/C [2]: 95 % of control
T/C [3]: 104 % of control
T/C [12]: 111 % of control

Nc1ccc(C(=O)O)cc1
T/C [9]: 95 % of control
T/C [10]: 100 % of control
T/C [11]: 101 % of control

CCCCCCCCCCCCCCCC(=O)N1CC[N+](C)(CC2=CC3(Cl)C(Cl)=C(Cl)C2(Cl)C3(Cl)Cl)CC1 (stereo unspecified)
T/C (endpoint: mean survival time, dose: 75.0 mg/kg/injection, schedule: Q01DX001 (ip), vehicle: saline): 93 % of control
T/C (endpoint: mean survival time, dose: 150.0 mg/kg/injection, schedule: Q01DX001 (ip), vehicle: saline): 100 % of control

OC1COC(C(F)(F)F)(C(F)(F)F)C1 (stereo unspecified)
T/C [6]: 94 % of control
T/C [7]: 93 % of control
T/C [8]: 96 % of control

CC(CN1CCCCC1)C(=O)c1ccc(-c2ccccc2)cc1 (stereo unspecified)
T/C [13]: 97 % of control
T/C [1]: 100 % of control
T/C [2]: 97 % of control

O=C(NC(=S)Nc1cccc2c(O)cccc12)c1cccc(Br)c1
T/C [9]: 88 % of control and 91 % of control
T/C [2]: 86 % of control and 98 % of control
T/C [14]: 90 % of control and 91 % of control
T/C [6]: 94 % of control
T/C [10]: 88 % of control and 92 % of control
T/C [3]: 103 % of control and 108 % of control
T/C (endpoint: mean survival time, dose: 200.0 mg/kg/injection, schedule: Q04DX002 (ip), vehicle: saline with Tween-80): 91 % of control and 94 % of control
T/C [7]: 94 % of control
T/C [11]: 88 % of control and 90 % of control
T/C [12]: 116 % of control and 108 % of control
T/C (endpoint: mean survival time, dose: 400.0 mg/kg/injection, schedule: Q04DX002 (ip), vehicle: saline with Tween-80): 90 % of control and 95 % of control
T/C [8]: 94 % of control

CC1Cc2c(N)cccc2C1=O (stereo unspecified)
T/C [9]: 98 % of control
T/C [10]: 87 % of control
T/C [11]: 91 % of control

COc1cc(C(O)C(Cl)(Cl)Cl)ccc1O (stereo unspecified)
T/C (endpoint: mean survival time, dose: 100.0 mg/kg/injection, schedule: Q01DX009 (ip), vehicle: other): 94 % of control
T/C (endpoint: mean survival time, dose: 200.0 mg/kg/injection, schedule: Q01DX009 (ip), vehicle: other): 105 % of control
T/C (endpoint: mean survival time, dose: 400.0 mg/kg/injection, schedule: Q01DX009 (ip), vehicle: other): 94 % of control

CC1(C)N=C(N)N=C(N)N1c1ccc(Cl)c(Cl)c1
T/C (endpoint: mean survival time, dose: 25.0 mg/kg/injection, schedule: Q04DX002 (ip), vehicle: saline with Tween-80): 102 % of control
T/C (endpoint: mean survival time, dose: 50.0 mg/kg/injection, schedule: Q04DX002 (ip), vehicle: saline with Tween-80): 98 % of control
T/C (endpoint: mean survival time, dose: 100.0 mg/kg/injection, schedule: Q01DX001 (ip), vehicle: Klucel (hydroxypropylcellulose) (HPC)): 96 % of control
T/C [14]: 90 % of control

CCOC(=O)C(=O)Nc1cc(C)ccc1C
T/C (endpoint: mean survival time, dose: 6.25 mg/kg/injection, schedule: Q01DX009 (ip), vehicle: saline with Tween-80): 96 % of control
T/C (endpoint: mean survival time, dose: 12.5 mg/kg/injection, schedule: Q01DX009 (ip), vehicle: saline with Tween-80): 95 % of control
T/C [13]: 98 % of control

Cc1c2ccccc2c(C)c2c1ccc1ccccc12
T/C [13]: 106 % of control
T/C [6]: 106 % of control
T/C (endpoint: mean survival time, dose: 125.0 mg/kg/injection, schedule: Q04DX003 (ip), vehicle: Klucel (hydroxypropylcellulose) (HPC)): 121 % of control

CN(C)N=Nc1cc(C(N)=O)cc(C(N)=O)c1
T/C (endpoint: mean survival time, dose: 18.75 mg/kg/injection, schedule: Q01DX009 (ip), vehicle: Klucel (hydroxypropylcellulose) (HPC)): 101 % of control
T/C (endpoint: mean survival time, dose: 37.5 mg/kg/injection, schedule: Q01DX009 (ip), vehicle: Klucel (hydroxypropylcellulose) (HPC)): 106 % of control
T/C (endpoint: mean survival time, dose: 75.0 mg/kg/injection, schedule: Q01DX009 (ip), vehicle: Klucel (hydroxypropylcellulose) (HPC)): 124 % of control

CC1CN1CCCNC(=O)C(=O)NCCCN1CC1C (stereo unspecified)
T/C (endpoint: mean survival time, dose: 100.0 mg/kg/injection, schedule: Q01DX001 (ip), vehicle: saline): 182 % of control

Cc1ccc(S(=O)(=O)SC(F)(F)F)cc1
T/C (endpoint: mean survival time, dose: 5.0 mg/kg/injection, schedule: Q01DX001 (ip), vehicle: saline): 106 % of control
T/C (endpoint: mean survival time, dose: 10.0 mg/kg/injection, schedule: Q01DX001 (ip), vehicle: saline): 104 % of control
